Assay results as given in US20240254129A1, “HETEROCYCLIC COMPOUNDS AND USES THEREOF” (Kumquat Biosciences Inc., priority 2021, published 2024).
Where two headings read alike, the source gives them in different places.

How the values were obtained:
[1] = biological target: GST-tagged K-Ras mutant / His-tagged hSOS1 (Homo sapiens, UniProt P01116); assay: HTRF assay, K-Ras mutant / SOS1 interaction; assay type: binding; settings: read-out: IC50 against mutant Kras
Outline: (§1)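 Compounds, in duplicate at six concentrations from 10 μM to 0.01 μM, are added to GST-K-Ras premixed with anti-GST-Eu(K), then His-hSOS1 with anti-6His-XL665. After roughly 10 min, FRET is measured and the emission ratio is used to derive IC50.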

[2] = biological target: T1, wildtype Kras / hSOS1 (Homo sapiens, UniProt P01116); assay: HTRF assay, wildtype Kras / SOS1 interaction; assay type: binding; settings: read-out: IC50 against wildtype Kras
T1 construct: made in house; host or cells: E. coli BL21 (DE3)
T1 sequence (P01116 1-188 isoform P01116-2): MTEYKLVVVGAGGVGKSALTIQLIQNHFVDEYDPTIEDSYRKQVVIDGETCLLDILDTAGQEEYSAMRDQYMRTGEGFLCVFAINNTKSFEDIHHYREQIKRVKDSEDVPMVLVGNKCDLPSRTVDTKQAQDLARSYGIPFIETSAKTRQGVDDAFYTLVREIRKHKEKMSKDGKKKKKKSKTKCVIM
Outline: as §1

[3] = compound nos. 201-213, general methodology of example 5
[4] = compound nos. 102-196, general methodology of example 5

Chain of GST-tagged K-Ras mutant / His-tagged hSOS1 (P01116 whole entry G12D, form open): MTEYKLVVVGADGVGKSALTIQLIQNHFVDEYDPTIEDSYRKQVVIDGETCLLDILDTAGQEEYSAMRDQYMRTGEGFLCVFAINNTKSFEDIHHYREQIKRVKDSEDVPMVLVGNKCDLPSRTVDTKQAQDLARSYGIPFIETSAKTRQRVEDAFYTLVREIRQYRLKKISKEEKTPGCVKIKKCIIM

Structure (SMILES)	IC50 ([1]; compound nos. 401-703)	IC50 ([2]; compound nos. 401-703)	other results
N#CCCc1cc2c(N3CC4CCC(C3)N4)nc(OC[C@@]34CCCN3C[C@H](F)C4)nc2c(F)c1-c1ccc(F)c2sc(N)nc12 [Compound 496, 3-(7-(2-amino-7-fluoroben-zo[d]thiazol-4-yl)-4-(3,8-diazabicyclo[3.2.1]octan-3-yl)-8-fluoro-2-(((2R,7aS)-2-fluorotetrahydro-1H-pyrrol-izin-7a(5H)-yl)methoxy)-quinazolin-6-yl)propane-nitrile]	< 500 nM	< 500 nM	–
Nc1nc2c(-c3c(Cl)cc4c(N5C[C@H]6CC[C@@H](C5)N6)nc(OCC5(CN6CCCC6)CC5)nc4c3F)cccc2o1 [Compound 212, 4-(4-((1R,5S)-3,8-diaza-bicyclo[3.2.1]octan-3-yl)-6-chloro-8-fluoro-2-((1-(pyrrolidin-1-ylmethyl)-cyclopropyl)methoxy)quin-azolin-7-yl)benzo[d]oxazol-2-amine]	–	–	IC50 [1, 3]: < 1500 nM; IC50 [2, 3]: < 1500 nM
Nc1c(F)ccc(-c2c(Cl)cc3c(N4CC5CCC(C4)N5)nc(OCC45CCCN4CCC5)nc3c2F)c1F [Compound 563, 3-(4-(3,8-diazabicyclo-[3.2.1]octan-3-yl)-6-chloro-8-fluoro-2-((tetrahydro-1H-pyrrolizin-7a(5H)-yl)meth-oxy)quinazolin-7-yl)-2,6-difluoroaniline]	> 500 nM	> 500 nM	–
Cc1ccc2[nH]nc(C#N)c2c1-c1ccc2c(N3CC4CCC(C3)N4)nc(OC[C@@]34CCCN3C[C@H](F)C4)nc2c1F [Compound 561, 4-(4-(3,8-diazabicyclo-[3.2.1]octan-3-yl)-8-fluoro-2-(((2R,7aS)-2-fluorotetra-hydro-1H-pyrrolizin-7a(5H)-yl)methoxy)quinazolin-7-yl)-5-methyl-1H-indazole-3-carbonitrile]	> 500 nM	> 500 nM	–
Cc1ccc2cnn(C)c2c1-c1c(Cl)cc2c(N3CC4CCC(C3)N4)nc(OCC3(CN4CCCC4)CC3)nc2c1F [Compound 438, 4-(3,8-diazabicyclo[3.2.1]-octan-3-yl)-6-chloro-7-(1,6-dimethyl-1H-indazol-7-yl)-8-fluoro-2-((1-(pyrrolidin-1-ylmethyl)cyclopropyl)meth-oxy)quinazoline]	> 500 nM	< 500 nM	–
Nc1nc2c(-c3c(Cl)cc4c(N5CCNCC(F)(F)C5)nc(Oc5cccnc5C5CC5)nc4c3F)cccc2s1 [Compound 145, 4-(6-chloro-2-((2-cycloprop-ylpyridin-3-yl)oxy)-4-(6,6-difluoro-1,4-diazepan-1-yl)-8-fluoroquinazolin-7-yl)-benzo[d]thiazol-2-amine]	–	–	IC50 [1, 4]: > 500 nM; IC50 [2, 4]: > 500 nM
CN1CCC[C@H]1COc1nc(N2CCCC(C(=O)O)CC2)c2cc(Cl)c(-c3cccc4sc(N)nc34)c(F)c2n1 (stereo partly drawn) [Compound 535, 1-(7-(2-aminobenzo[d]thia-zol-4-yl)-6-chloro-8-fluoro-2-(((S)-1-methylpyrrolidin-2-yl)methoxy)quinazolin-4-yl)azepane-4-carboxylic acid]	< 500 nM	> 500 nM	–
Nc1ccc2cccc(-c3ccc4c(N5CC6CCC(C5)N6)nc(OCC56CCCN5CCC6)nc4c3F)c2n1 [Compound 596, 8-(4-(3,8-diazabicyclo-[3.2.1]octan-3-yl)-8-fluoro-2-((tetrahydro-1H-pyrrol-izin-7a(5H)-yl)methoxy)-quinazolin-7-yl)quinolin-2-amine]	> 500 nM	> 500 nM	–
Nc1nc2c(C3CCc4c(nc(OC[C@@]56CCCN5C[C@H](F)C6)nc4N4CCNCC(F)(F)C4)C3)cccc2s1 (stereo partly drawn) [Compound 509, 4-(4-(6,6-difluoro-1,4-diazepan-1-yl)-2-(((2R,7aS)-2-fluorotetrahydro-1H-pyrrolizin-7a(5H)-yl)meth-oxy)-5,6,7,8-tetrahydro-quinazolin-7-yl)benzo[d]-thiazol-2-amine]	> 500 nM	> 500 nM	–
Fc1c(N2CCCc3cccc(Cl)c32)cc(Cl)c2c(N3CCCCCC3)nc(OCC34CCCN3CCC4)nc12 [Compound 467, 4-(azepan-1-yl)-5-chloro-7-(8-chloro-3,4-dihydroquin-olin-1(2H)-yl)-8-fluoro-2-((tetrahydro-1H-pyrrolizin-7a(5H)-yl)methoxy)quin-azoline]	> 500 nM	< 500 nM	–
Nc1nc2c(-c3c(Cl)cc4c(N5CCNCC(F)(F)C5)nc(OCCCN5CCOCC5)nc4c3F)cccc2s1 [Compound 129, 4-(6-chloro-4-(6,6-difluoro-1,4-diazepan-1-yl)-8-fluoro-2-(3-morpholinopropoxy)-quinazolin-7-yl)benzo[d]-thiazol-2-amine]	–	–	IC50 [1, 4]: > 500 nM; IC50 [2, 4]: < 500 nM
C#Cc1c(F)ccc2cc(O)cc(-c3ccc4c(N5CCCC6(CNC6)C5)nc(OC[C@@]56CCCN5C[C@H](F)C6)nc4c3F)c12 [Compound 508, 5-ethynyl-6-fluoro-4-(8-fluoro-2-(((2R,7aS)-2-fluorotetrahydro-1H-pyrrol-izin-7a(5H)-yl)methoxy)-4-(2,6-diazaspiro[3.5]nonan-6-yl)quinazolin-7-yl)naph-thalen-2-ol]	< 500 nM	> 500 nM	–
Nc1nc2c(-c3c(Cl)cc4c(N5CCN(S(=O)(=O)C6CC6)CC(F)(F)C5)nc(OC[C@@]56CCCN5C[C@H](F)C6)nc4c3F)ccc(F)c2s1 [Compound 576]	< 500 nM	> 500 nM	–
CN1CCCC1CCNc1nc(N2CC3CCC(C2)N3)c2ccc(-c3ccc(F)c4sc(N)nc34)nc2n1 (stereo not shown) [Compound 697, 4-(4-(3,8-diazabicyclo-[3.2.1]octan-3-yl)-2-((2-(1-methylpyrrolidin-2-yl)-ethyl)amino)pyrido[2,3-d]-pyrimidin-7-yl)-7-fluoro-benzo[d]thiazol-2-amine]	> 500 nM	> 500 nM	–
Cc1ncc(Oc2nc(N3CCCCCC3)c3cc(Cl)c(-c4cccc5sc(N)nc45)c(F)c3n2)cn1 [Compound 461, 4-(4-(azepan-1-yl)-6-chloro-8-fluoro-2-((2-methylpyrim-idin-5-yl)oxy)quinazolin-7-yl)benzo[d]thiazol-2-amine]	> 500 nM	< 500 nM	–
CN(C)C1CN(c2nc(N3CC4CCC(C3)N4)c3cc(Cl)c(-c4ccc(F)c5sc(N)nc45)c(F)c3n2)C1 [Compound 503, 4-(4-(3,8-diazabicyclo-[3.2.1]octan-3-yl)-6-chloro-2-(3-(dimethyl-amino)azetidin-1-yl)-8-fluoroquinazolin-7-yl)-7-fluorobenzo[d]thiazol-2-amine]	> 500 nM	> 500 nM	–
N#Cc1c(N)sc2c(F)ccc(-c3c(Cl)cc4c(N5CCC6CCC(C5)N6)nc(OC[C@@]56CCCN5C[C@H](F)C6)nc4c3F)c12 (stereo partly drawn) [Compound 504, 4-(4-(3,9-diazabicyclo-[4.2.1]nonan-3-yl)-6-chloro-8-fluoro-2-(((2R,7aS)-2-fluorotetrahydro-1H-pyrrol-izin-7a(5H)-yl)methoxy)-quin-azolin-7-yl)-2-amino-7-fluorobenzo[b]thiophene-3-carbonitrile]	< 500 nM	> 500 nM	–
CN1CCC[C@H]1COc1nc(N2CCCC(n3ccnc3)CC2)c2cc(Cl)c(-c3cccc4sc(N)nc34)c(F)c2n1 (stereo partly drawn) [Compound 651, 4-(4-(4-(1H-imidazol-1-yl)-azepan-1-yl)-6-chloro-8-fluoro-2-(((S)-1-methyl-pyrrolidin-2-yl)methoxy)-quinazolin-7-yl)benzo[d]-thiazol-2-amine]	< 500 nM	> 500 nM	–
Nc1nc2c(-c3c(Cl)cc4c(N5CCCC(CO)CC5)nc(OC[C@@]56CCCN5C[C@H](F)C6)nc4c3F)ccc(F)c2s1 (stereo partly drawn) [Compound 485, (1-(7-(2-amino-7-fluoro-benzo[d]thiazol-4-yl)-6-chloro-8-fluoro-2-(((2R,7aS)-2-fluorotetra-hydro-1H-pyrrolizin-7a(5H)-yl)methoxy)quinazolin-4-yl)azepan-4-yl)methanol]	< 500 nM	< 500 nM	–
COc1nc2c(N3CC4CCC(C3)N4)nc(OC[C@@]34CCCN3C[C@H](F)C4)nc2cc1-c1cc(O)cc2ccccc12 [Compound 533, 4-(4-(3,8-diazabicyclo-[3.2.1]octan-3-yl)-2-(((2R,7aS)-2-fluorotetra-hydro-1H-pyrrolizin-7a(5H)-yl)methoxy)-6-methoxypyrido-[3,2-d]-pyrimidin-7-yl)naphthalen-2-ol]	> 500 nM	> 500 nM	–
Nc1nc2c(-c3c(Cl)cc4c(N5CC6CCC(C5)N6)nc(OC[C@@]56CCCN5C[C@H](F)C6)nc4c3F)cccc2o1 [Compound 204, 4-(4-((1R,5S)-3,8-diaza-bicyclo[3.2.1]octan-3-yl)-6-chloro-8-fluoro-2-(((2R,7aS)-2-fluorotetra-hydro-1H-pyrrolizin-7a(5H)-yl)methoxy)quin-azolin-7-yl)benzo[d]-oxazol-2-amine]	–	–	IC50 [1, 3]: < 1500 nM; IC50 [2, 3]: < 1500 nM
CC1CCCN(c2nc(OC[C@@H]3CCCN3C)nc3c(F)c(-c4cccc5sc(N)nc45)c(Cl)cc23)CC1 (stereo partly drawn) [Compound 416, 4-(6-chloro-8-fluoro-4-(4-methylazepan-1-yl)-2-(((S)-1-methylpyrrolidin-2-yl)-methoxy)quinazolin-7-yl)-benzo[d]thiazol-2-amine]	> 500 nM	< 500 nM	–
Cc1ccc(CN)cc1-c1c(Cl)cc2c(N3CC4CCC(C3)N4)nc(OCC34CCCN3CCC4)nc2c1F [Compound 469, (3-(4-(3,8-diazabicyclo-[3.2.1]octan-3-yl)-6-chloro-8-fluoro-2-((tetrahydro-1H-pyrrolizin-7a(5H)-yl)meth-oxy)quinazolin-7-yl)-4-methylphenyl)methanamine]	> 500 nM	< 500 nM	–
